Experimental data: publication PMC5848165 (Toxins, 2018)
Entries after “also recorded” stand apart in the source; their conditions may differ. Residues, ends and D or L forms follow the SMILES beside them.

Legend:
[1] = system: TTX-S sodium channels from rat DRG neurons; test: Whole-cell patch clamp, TTX-S sodium currents in rat DRG neurons; format: cell-based, rat (Sprague-Dawley); conditions: 25 °C
Nav1.4 = test: Whole-cell patch clamp, Nav1.4 in HEK293 cells; format: cell-based, rat; conditions: 1 µM, −10 mV from −80 mV
Text: Nine sodium channel subtypes have been identified and classified as TTX-S (Nav1.1–Nav1.4, Nav1.6, and Nav1.7) or TTX-R types (Nav1.5, Nav1.8, and Nav1.9). […] However, the subtype selectivity of JZTX-34 on the subtype of sodium channel is still unknown. In this work, effects of JZTX-34 on VGSC subtypes (Nav1.1–Nav1.8) were examined. Nav1.1–Nav1.7 were transfected into HEK293 cells and Nav1.8 currents were expressed in ND cells. Inward sodium currents were elicited by a 50 ms depolarizing potential to −10 mV from a holding potential of −80 mV every 5 s. […] No effects on other sodium channel subtypes were found (Nav1.1, Nav1.2, Nav1.4–Nav1.6, and Nav1.8) (Figure S2). […]
The HEK293T cells were maintained in standard culture conditions (5% CO2 and 37 °C). […] After culturing for 36–72 h, cells with obvious green fluorescence were selected for sodium currents recordings the internal solution for sodium currents recording that contained (in mM) 140 CsF, 5 NaCl, 10 HEPES, 3 Na2-ATP, and 10 EGTA. […]
Sodium currents were recorded from DRG, HEK293, and ND cells by the whole-cell patch-clamp technique at 25 °C. […] Experiments date were acquired from whole-cell Axon 700B patch clamp amplifier (Molecular Devices, Sunnyvale, CA, USA) and analyzed by the program Clampfit10.0 (Molecular Devices, Sunnyvale, CA, USA) and Sigmaplot. […]

hot plate test in mice = test: Hot plate test; format: in vivo, mouse (Kunming); conditions: for hot plate latency: 120 min, baseline about 10 s, n = 6
Protocol: Figure 6 Effects of JZTX-34 on pain. (A) Effects of JZTX-34 on the early phase (0–5 min) and late phase (15–30 min) of formalin-induced paw licking response in mice. (B) Effects of JZTX-34 on the acetic acid-induced writhing response in mice. (C)Effects of JZTX-34 on the hot plate test in mice.
Mice with a latency time about 10 s were selected for the hot plate test. […] After administration of test samples, the latency time was recorded at the time points of 30 min, 60 min, 120 min, and 180 min (Figure 6C). Negative control animals received the same volume of vehicle.
The synthesized JZTX-34 was obtained according to the procedure as previously described. […] Rats (Sprague-Dawley) and Kunming mice were maintained in the Laboratory of Protein Chemistry of Hunan Normal University. All of the experimental involving animals were approved by the Animal Care and Use Committee of Hunan Normal University (2016-273, 13 October 2016).
Mice were put on a hot plate apparatus (model HZ66-ZH-YLS-6B, Shanghai, China) in order to test response time to a thermal stimulus. The responses time of mice at about 10 s was selected for the test. […] Hind paw licking or jumping were regarded as a sign to avoid heat nociception.
Data from Axon 700B patch clamp were analyzed by Clampfit10.0 (Molecular Devices, Sunnyvale, CA, USA). Dose-response curves were fitted by the Hill logistic equation: y = 1 − (1 − fmax)/[…]. In this equation, n stands an empirical Hill coefficient and fmax is the fraction of current resistant to inhibition at high toxin (Tx) concentration. The G-V curves were obtained by calculating the conductance (G) at each voltage (V) using the equation G = I/(V1 − Vrev), with Vrev being the reversal potential determined for each cell individually. G-V curves were fitted using a Boltzmann equation—y = 1/(1 + exp[(Va − V)/κ])—in which Va, V, and κ represent midpoint voltage of kinetics, test potential, and slope factor, respectively. […] Statistical significance was calculated using Student’s t-test and was defined as p < 0.05.

Q: CC(C)C[C@@H]1NC(=O)[C@H](Cc2c[nH]c3ccccc23)NC(=O)[C@H](CCC(=O)O)NC(=O)[C@H](CCCNC(=N)N)NC(=O)[C@@H](NC(=O)[C@H](C)N)CSSC[C@@H]2NC(=O)[C@@H]3CSSC[C@@H](C(=O)N[C@H](C(=O)N[C@@H](Cc4c[nH]c5ccccc45)C(=O)N[C@@H](CC(=O)O)C(=O)N[C@@H](Cc4c[nH]c5ccccc45)C(=O)N[C@H](C(=O)N[C@H](C(=O)O)C(C)C)[C@@H](C)O)C(C)C)NC(=O)[C@H](Cc4c[nH]cn4)NC(=O)[C@H](Cc4ccc(O)cc4)NC(=O)[C@@H]4CCCN4C(=O)[C@H](Cc4c[nH]c5ccccc45)NC(=O)[C@H](CCCCN)NC(=O)[C@H](CCCCN)NC(=O)[C@H](CCCNC(=N)N)NC(=O)[C@H](CSSC[C@H](NC(=O)CNC(=O)CNC1=O)C(=O)N[C@@H](CO)C(=O)N[C@@H](CCCCN)C(=O)N[C@@H](CC(=O)O)C(=O)N[C@@H](C)C(=O)N[C@@H](CC(=O)O)C(=O)N3)NC(=O)[C@H](CCC(=O)O)NC(=O)[C@H](CC(C)C)NC(=O)[C@H](Cc1c[nH]cn1)NC(=O)[C@H](C)NC2=O [JZTX-34, Jingzhaotoxin-34] (HELM PEPTIDE1{A.C.R.E.W.L.G.G.C.S.K.D.A.D.C.C.A.H.L.E.C.R.K.K.W.P.Y.H.C.V.W.D.W.T.V}$PEPTIDE1,PEPTIDE1,2:R3-16:R3|PEPTIDE1,PEPTIDE1,9:R3-21:R3|PEPTIDE1,PEPTIDE1,15:R3-29:R3$$$V2.0; N-terminus and C-terminus assumed) was tested. Which “inhibition of TTX-S sodium currents” value ([1]; 1 µM synthetic JZTX-34, 50 ms depolarization to −10 mV from −80 mV) did it give?
A: ~ 81%

Q: And the IC50 ([1]; synthetic toxin, Hill fit, n = 5, −10 mV from −80 mV holding)?
A: 91 nM

Q: What about the “effect on Nav1.4 currents” value (Nav1.4) of the same compound?
A: No effects

Q: What about the hot plate latency (hot plate test in mice; 0.5 mg/kg i.p.) of the same compound?
A: 18.3 s

Q: And the hot plate latency (hot plate test in mice; 1 mg/kg i.p.)?
A: 23.0 s

Q: And the hot plate latency (hot plate test in mice; 2 mg/kg i.p.)?
A: 31.6 s

Q: And the “time of maximal analgesia, hot plate” value (hot plate test in mice; 0.5, 1 or 2 mg/kg i.p.)?
A: 120 min

Q: What about the “hot plate, analgesia vs morphine” value (hot plate test in mice; JZTX-34 2 mg/kg vs morphine 5 mg/kg) of the same compound?
A: longer duration and is more effective than morphine; also recorded: longer and stronger analgesia effects than 5 mg/kg morphine
